{"source": "patent US20250303006A1", "about": "“BIOCOMPATIBLE ANTISEPTIC COMPOSITION CONTAINING 9-HYDROXYCALABAXANTHONE AND/OR RELATED XANTHONES” (UNIVERSITAT DE LES ILLES BALEARS, priority 2022, published 2025)", "key": {"[1]": {"system": "human gingival fibroblast cells", "experiment": "LDH cytotoxicity in immortalized human gingival fibroblasts", "assay_type": "cell-based", "procedure": "Cells were seeded in 48-well plates at a density of 2×10^4 cells/well. When the cells reached confluence, they were treated with different concentrations of HCX, and cytotoxicity was determined.\n48 hours after seeding the iHGF cells in 48-well plates, cell inflammation was induced by means of adding 1 μg/ml of P. gingivalis lipopolysaccharide (LPS) (InvivoGen, San Diego, CA, USA) and the cells were treated with different concentrations of HCX (0.00002, 0.0002, 0.002%) in a fibroblast medium with 50 μg/ml of ascorbic acid (Sigma-Aldrich, St. Louis, MO, USA) for 48 hours. Images of the cells were taken with a bright field inverted microscope (Nikon Eclipse TS100) before treatment and 24 hours and 48 hours after treatment.\nTo estimate the cytotoxicity of the different concentrations of HCX, the presence of lactate dehydrogenase (LDH) in the culture media 48 h after pro-inflammatory stimulation with LPS and treatment with HCX was used as the cell death index. Following the manufacturer's instructions (Cytotoxicity Detection kit, Roche Diagnostics, Mannheim, Germany), LDH activity was determined spectrophotometrically after a 30-minute incubation at room temperature (RT) of 50 μl of culture media and 50 μl of the reaction mixture, measuring nicotinamide adenine dinucleotide (NADH) oxidation at 490 nm in the presence of pyruvate. Results were presented in relation to LDH activity of the media of the cells seeded without treatment (negative control, 0% cell death) and in relation to cells treated with 1% Triton X-100 (positive control, 100% death) using the following equation: Cytotoxicity (%)=[(expected value−negative control)/(positive control−negative control)]×100.\nDifferent hydrogel formulations with and without 0.05% of HCX (HA, GelMa, Alginate and HPMC) and commercial gel containing 0.2% chlorhexidine and unmodified HA (Periokin Hyaluronic 1%, Laboratorios Kin, Commercial HA 0.2% CHX) were used for studies with gingival fibroblasts and S. epidermidis. Cells and bacteria without hydrogels served as negative control (C−). Gels at a concentration of 5% (v/v) were used for cell and bacterial studies.\nImmortalized human gingival fibroblasts were cultured like in experiment 1 of section 1.2. The cells were treated with different hydrogel formulations with and without 0.05% of HCX (HA, GelMa, Alginate and HPMC) and commercial gel containing 0.2% chlorhexidine and unmodified HA (Periokin Hyaluronic 1%, Laboratorios Kin, commercial HA 0.2% CHX) in a fibroblast medium for 24 hours (n=4). Cell cytotoxicity was measured, like in experiment 1 of section 1.4.\n16.1. […]\nImmortalized human gingival fibroblasts were cultured like in experiment 1 of section 1.2. […] Cell cytotoxicity was measured, like in experiment 1 of section 1.4."}, "S. aureus": {"system": "S. aureus", "assay_type": "cell-based", "procedure": "S. aureus ATCC 29213 was grown from frozen stocks in Luria-Bertani (LB) broth (Scharlab), at 37° C. under aerobic conditions in an orbital shaker (180 rpm). After overnight incubation, 1 mL of bacterial suspensions were incubated with different concentrations of CHX (0.01, 0.005, 0.003, 0.001, 0.0001%) and HCX (0.003, 0.002, 0.001, 0.0002, 0.00002%) for 3 hours at 37° C. under aerobic conditions in an orbital shaker (180 rpm). Bacterial suspension without treatment served as negative control (C−). The optical density (OD) was measured at 600 nm at 0 h and 3 h to determine bacterial proliferation (PowerWave Ht). The bacterial growth rate (μ) was calculated during the exponential growth phase following the equation ln ODt−ln OD0=μ×(t−t0) (n=4). The live/Dead ratio of bacteria was determined using the LIVE/DEAD BacLight bacterial viability kit (Invitrogen), following the manufacturer's instructions. The assays were carried out in triplicate.\nThe bacteria S. aureus was cultured and treated with different commercial antiseptic gels and HA hydrogel with […] HCX. The gels were tested at a concentration of 5% (v/v), and the experiment was run like in experiment 7, section 7.1.\n16.1. […]"}}}
{"smiles": "COc1c(O)cc2oc3cc(O)c(CC=C(C)C)c(O)c3c(=O)c2c1CC=C(C)C", "note": "[aMG, α-Mangostin]", "values": [{"measurement": "toxicity to cells", "setting": "[1]; 0.002% in solution", "result": "already toxic"}]}
{"smiles": "O=c1c2cc(O)c(O)cc2oc2cc(O)cc(O)c12", "note": "[NRT, norathryol, reference compound]", "values": [{"measurement": "antibacterial effect", "setting": "S. aureus; all concentrations tested (0.4-77 μM), 3 h", "result": "none of them were antibacterial"}, {"measurement": "biocompatibility for the cells (LDH cytotoxicity)", "setting": "[1]; all concentrations tested (0.4-77 μM), 24 h", "result": "biocompatible"}]}
{"smiles": "CC(C)=CCc1c(O)cc(O)c2c(=O)c3cc4c(c(O)c3oc12)OC(C)(C)C=C4", "note": "[FXA, Formoxanthone A]", "values": [{"measurement": "concentration with antibacterial effect without cytotoxicity", "setting": "S. aureus; S. aureus 3 h together with LDH cytotoxicity in gingival fibroblasts 24 h", "result": 0.001, "unit": "%"}]}
